Experimental data as given in ChEMBL document CHEMBL1126805, “Synthesis and evaluation of a series of benzylaniline hydrochlorides as potential cytotoxic and antimitotic agents acting by inhibition of tubulin polymerization” (J Med Chem, 1993).

Legend:
M14 [1] = assay: Tested for cytotoxicity against M14 melanoma; type: functional, Homo sapiens; details: Homo sapiens, M14
SF-295 [2] = assay: In vitro cytotoxicity against SF-295 (CNS cancer) cell line.; type: functional, Homo sapiens; details: Homo sapiens, SF-295
DMS-273 [3] = assay: Tested for cytotoxicity against DMS 273 (small-cell lung cancer) cell line.; type: functional, Homo sapiens
OVCAR-3 [4] = assay: Tested for cytotoxicity against OVCAR-3 (ovarian cancer) cell line.; type: functional, Homo sapiens; details: Homo sapiens, OVCAR-3
Tubulin = Tubulin (Bos taurus, UniProt Q6B856+Q862F3); assay: In vitro inhibition of bovine electrophoretically homogeneous tubulin polymerization.; type: functional
Sequence of Tubulin (Q6B856 whole entry): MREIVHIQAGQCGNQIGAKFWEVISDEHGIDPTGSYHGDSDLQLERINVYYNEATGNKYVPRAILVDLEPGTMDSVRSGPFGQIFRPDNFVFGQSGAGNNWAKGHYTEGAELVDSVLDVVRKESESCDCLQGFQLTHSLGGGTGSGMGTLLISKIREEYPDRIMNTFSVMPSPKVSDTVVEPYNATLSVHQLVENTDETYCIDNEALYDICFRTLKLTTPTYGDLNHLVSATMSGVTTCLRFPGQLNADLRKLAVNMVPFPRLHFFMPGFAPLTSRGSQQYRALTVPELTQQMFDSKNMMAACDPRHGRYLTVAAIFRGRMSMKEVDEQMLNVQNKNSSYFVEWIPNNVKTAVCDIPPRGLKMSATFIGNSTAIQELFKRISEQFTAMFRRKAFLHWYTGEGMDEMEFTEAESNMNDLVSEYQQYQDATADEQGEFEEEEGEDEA
Sequence of Tubulin (Q862F3 whole entry): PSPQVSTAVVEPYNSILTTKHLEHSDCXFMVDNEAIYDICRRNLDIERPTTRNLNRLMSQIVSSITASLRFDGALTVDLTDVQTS

CAKI-1 [5] = assay: Tested for cytotoxicity against CAKI-1 renal cancer; type: functional, Homo sapiens; details: Homo sapiens, CAKI-1
HL-60 [6] = assay: Tested for cytotoxicity against human cancer cell lines HL-60(TB) (leukemia) cell line.; type: functional
COLO 205 [7] = assay: Tested for cytotoxicity against COLO 205 (colon cancer) cell line.; type: functional, Homo sapiens; details: Homo sapiens, COLO 205
NCI-H522 [8] = assay: Tested for cytotoxicity against NCI-H522 (non-small-cell lung cancer) cell line.; type: functional, Homo sapiens; details: Homo sapiens, NCI-H522
SF-268 = assay: Tested for cytotoxicity against SF-268 cell lines in CNS cancer; type: functional; details: Homo sapiens
DLD-1 = assay: Tested for cytotoxicity against DLD-1 cell lines in colon cancer; type: functional; details: Homo sapiens
CCRF-CEM = assay: Tested for cytotoxicity against CCRF-CEM cell lines in leukemia; type: functional; details: Homo sapiens
TK-10 = assay: Tested for cytotoxicity against TK-10 cell lines in renal cancer; type: functional; details: Homo sapiens
HCT-116 = assay: Tested for cytotoxicity against HCT116 cell lines in colon cancer; type: functional; details: Homo sapiens
OVCAR-8 = assay: Tested for cytotoxicity against OVCAR-8 cell lines in ovarian cancer; type: functional; details: Homo sapiens
M14 [9] = assay: (§1) Tested for cytotoxicity against M14 cell lines in melanoma; type: functional; details: Homo sapiens
OVCAR-4 = assay: Tested for cytotoxicity against OVCAR-4 cell lines in ovarian cancer; type: functional; details: Homo sapiens
IGROV-1 = assay: Tested for cytotoxicity against IGROV1 cell lines in ovarian cancer; type: functional; details: Homo sapiens
LXFL 529 = assay: Tested for cytotoxicity against LXFL529 cell lines in non-small-cell lung cancer; type: functional; details: Homo sapiens
SK-OV-3 = assay: Tested for cytotoxicity against SK-OV-3 cell lines in ovarian cancer; type: functional; details: Homo sapiens
OVCAR-3 [10] = assay: Tested for cytotoxicity against OVCAR-3 cell lines in ovarian cancer; type: functional; details: Homo sapiens
HOP-62 = assay: Tested for cytotoxicity against HOP-62 cell lines in non-small-cell lung cancer; type: functional; details: Homo sapiens
RPMI-8226 = assay: Tested for cytotoxicity against RPMI-8226 cell lines in leukemia; type: functional; details: Homo sapiens
NCI-H322M = assay: Tested for cytotoxicity against NCI-H322M cell lines in non-small-cell lung cancer; type: functional; details: Homo sapiens
CAKI-1 [11] = assay: (§2) Tested for cytotoxicity against CAKI-1 cell lines in renal cancer; type: functional; details: Homo sapiens
DMS-273 [12] = assay: Tested for cytotoxicity against DMS 273 cell lines in small-cell lung cancer; type: functional; details: Homo sapiens
NCI-H460 = assay: Tested for cytotoxicity against NCI-H460 cell lines in non-small-cell lung cancer; type: functional; details: Homo sapiens
KM-20L2 = assay: Tested for cytotoxicity against KM20L2 cell lines in colon cancer; type: functional; details: Homo sapiens
SW-620 = assay: Tested for cytotoxicity against SW-620 cell lines in colon cancer; type: functional; details: Homo sapiens
LOX IMVI = assay: Tested for cytotoxicity against LOX IMVI cell lines in melanoma; type: functional; details: Homo sapiens
EKVX = assay: Tested for cytotoxicity against […] cell lines in non-small-cell lung cancer; type: functional; details: Homo sapiens
A549 = assay: Tested for cytotoxicity against A549/ATCC cell lines in non-small-cell lung cancer; type: functional; details: Homo sapiens
SNB-75 = assay: Tested for cytotoxicity against SNB-75 cell lines in CNS cancer; type: functional; details: Homo sapiens
SF-539 = assay: Tested for cytotoxicity against SF-539 cell lines in CNS cancer; type: functional; details: Homo sapiens
NCI-H522 [13] = assay: (§3) Tested for cytotoxicity against NCI-H522 cell lines in non-small-cell lung cancer; type: functional; details: Homo sapiens
HCT-15 = assay: Tested for cytotoxicity against HCT-15 cell lines in colon cancer; type: functional; details: Homo sapiens
U-251 = assay: Tested for cytotoxicity against U251 cell lines in CNS cancer; type: functional; details: Homo sapiens
RXF 393 = assay: Tested for cytotoxicity against RXF-393 cell lines in renal cancer; type: functional; details: Homo sapiens
M19-MEL = assay: Tested for cytotoxicity against M19-MEL cell lines in melanoma; type: functional; details: Homo sapiens
786-0 = assay: Tested for cytotoxicity against 786-0 cell lines in renal cancer; type: functional; details: Homo sapiens
OVCAR-5 = assay: Tested for cytotoxicity against OVCAR-5 cell lines in ovarian cancer; type: functional; details: Homo sapiens
HT-29 = assay: Tested for cytotoxicity against HT-29 cell lines in colon cancer; type: functional; details: Homo sapiens
HL-60 [14] = assay: Tested for cytotoxicity against HL-60 (TB) cell lines in leukemia; type: functional; details: Homo sapiens
Malme-3M = assay: Tested for cytotoxicity against MALME-3M cell lines in melanoma; type: functional; details: Homo sapiens
NCI-H522 [15] = assay: as §3; type: functional; details: Homo sapiens; remark: listed apart in the source
UACC-257 = assay: Tested for cytotoxicity against UACC-257 cell lines in melanoma; type: functional; details: Homo sapiens
SF-295 [16] = assay: (§4) Tested for cytotoxicity against SF-295 cell lines in CNS cancer; type: functional; details: Homo sapiens
CAKI-1 [17] = assay: as §2; type: functional; details: Homo sapiens; remark: listed apart in the source
SF-295 [18] = assay: as §4; type: functional; details: Homo sapiens; remark: listed apart in the source
DMS-114 = assay: Tested for cytotoxicity against DMS114 cell lines in small-cell lung cancer; type: functional; details: Homo sapiens
UACC-62 = assay: Tested for cytotoxicity against UACC-62 cell lines in melanoma; type: functional; details: Homo sapiens
COLO 205 [19] = assay: (§5) Tested for cytotoxicity against COLO 205 cell lines in colon cancer; type: functional; details: Homo sapiens
XF498 = assay: Tested for cytotoxicity against XF 498 cell lines in CNS cancer; type: functional; details: Homo sapiens
SN12C = assay: Tested for cytotoxicity against SN12C cell lines in renal cancer; type: functional; details: Homo sapiens
SK-MEL-2 = assay: Tested for cytotoxicity against SK-MEL-2 cell lines in melanoma; type: functional; details: Homo sapiens
DMS-273 [20] = assay: Tested for cytotoxicity against DMS273 cell lines in small-cell lung cancer; type: functional; details: Homo sapiens
ACHN = assay: Tested for cytotoxicity against ACHN cell lines in renal cancer; type: functional; details: Homo sapiens
K562 = assay: Tested for cytotoxicity against K-562 cell lines in leukemia; type: functional; details: Homo sapiens
UO-31 = assay: Tested for cytotoxicity against UO-31 cell lines in renal cancer; type: functional; details: Homo sapiens
A498 = assay: Tested for cytotoxicity against A498 cell lines in renal cancer; type: functional; details: Homo sapiens
SK-MEL-5 = assay: Tested for cytotoxicity against SK-MEL-5 cell lines in melanoma; type: functional; details: Homo sapiens
HOP-18 = assay: Tested for cytotoxicity against HOP-18 cell lines in non-small-cell lung cancer; type: functional; details: Homo sapiens
SNB-78 = assay: Tested for cytotoxicity against SNB-78 cell lines in CNS cancer; type: functional; details: Homo sapiens
SNB-19 = assay: Tested for cytotoxicity against SNB-19 cell lines in CNS cancer; type: functional; details: Homo sapiens
M14 [21] = assay: as §1; type: functional; details: Homo sapiens; remark: listed apart in the source
MOLT-4 = assay: Tested for cytotoxicity against MOLT-4 cell lines in leukemia; type: functional; details: Homo sapiens
COLO 205 [22] = assay: as §5; type: functional; details: Homo sapiens; remark: listed apart in the source
NCI-H23 = assay: Tested for cytotoxicity against NCI-H23 cell lines in non-small-cell lung cancer; type: functional; details: Homo sapiens
KM12 = assay: Tested for cytotoxicity against KM12 cell lines in colon cancer; type: functional; details: Homo sapiens
HOP-92 = assay: Tested for cytotoxicity against HOP-92 cell lines in non-small-cell lung cancer; type: functional; details: Homo sapiens

`CCc1ccc(NCc2cc(OC)c(OC)c(OC)c2)cc1` was tested, and the GI50 (M14 [1]) was 0.315 µM, the GI50 (SF-295 [2]) was 0.266 µM and the GI50 (DMS-273 [3]) was 0.135 µM. For the same compound, the GI50 (OVCAR-3 [4]) was 0.283 µM, the IC50 (Tubulin) was 3 µM and the GI50 (CAKI-1 [5]) was 0.354 µM. It also gave a GI50 (HL-60 [6]; Homo sapiens, HL-60) of 0.168 µM, a GI50 (COLO 205 [7]) of 0.344 µM and a GI50 (NCI-H522 [8]) of 0.234 µM.

With `COc1cc(CNc2ccc(C)cc2)cc(OC)c1OC` [listing 1 of 2 here] the GI50 (SF-268) was 0.912 µM, the GI50 (DLD-1) was 0.575 µM and the GI50 (CCRF-CEM) was 0.282 µM. The GI50 (TK-10) was greater than 100 µM, the GI50 (HCT-116) was 0.575 µM and the GI50 (OVCAR-8) was 0.759 µM. The GI50 (M14 [9]) was less than 0.01 µM, the GI50 (OVCAR-4) was 21.4 µM and the GI50 (IGROV-1) was 0.708 µM. It also gave a GI50 (LXFL 529) of 0.631 µM, a GI50 (SK-OV-3) of 0.269 µM and a GI50 (OVCAR-3 [10]) of 0.214 µM. For the same compound, the GI50 (HOP-62) was 0.282 µM, the GI50 (RPMI-8226) was 0.437 µM and the GI50 (NCI-H322M) was 0.501 µM. It also gave a GI50 (CAKI-1 [11]) of 0.162 µM, a GI50 (DMS-273 [12]) of 0.104 µM and a GI50 (NCI-H460) of 0.214 µM. For the same compound, the GI50 (KM-20L2) was 0.251 µM, the GI50 (SW-620) was 0.11 µM and the GI50 (LOX IMVI) was 0.851 µM. It also gave a GI50 (EKVX) of 0.741 µM, a GI50 (A549) of 0.513 µM and a GI50 (SNB-75) of 0.389 µM. It also gave a GI50 (SF-539) of 0.316 µM, a GI50 (NCI-H522 [13]) of 0.204 µM and a GI50 (HCT-15) of 0.245 µM. It also gave a GI50 (U-251) of 0.331 µM, a GI50 (RXF 393) of 0.112 µM and a GI50 (M19-MEL) of 0.331 µM. For the same compound, the GI50 (786-0) was 0.324 µM, the GI50 (OVCAR-5) was 1.35 µM and the GI50 (HT-29) was 0.347 µM. For the same compound, the GI50 (HL-60 [14]) was 0.0891 µM, the GI50 (Malme-3M) was 0.468 µM and the GI50 (NCI-H522 [15]) was 0.262 µM. For the same compound, the IC50 (Tubulin) was 3.5 µM, the GI50 (UACC-257) was greater than 100 µM and the GI50 (SF-295 [16]) was 0.324 µM. It also gave a GI50 (CAKI-1 [17]) of 0.0132 µM, a GI50 (SF-295 [18]) of 0.233 µM and a GI50 (DMS-114) of 0.427 µM. It also gave a GI50 (UACC-62) of 0.575 µM, a GI50 (COLO 205 [19]) of 0.219 µM and a GI50 (XF498) of 0.468 µM. It also gave a GI50 (SN12C) of 0.851 µM, a GI50 (SK-MEL-2) of 0.132 µM and a GI50 (HL-60 [6]) of 0.722 µM. For the same compound, the GI50 (DMS-273 [20]) was 0.0933 µM, the GI50 (ACHN) was 0.0977 µM and the GI50 (K562) was 0.1 µM. For the same compound, the GI50 (UO-31) was 0.832 µM, the GI50 (A498) was greater than 100 µM and the GI50 (SK-MEL-5) was 0.912 µM. For the same compound, the GI50 (HOP-18) was 37.2 µM, the GI50 (SNB-78) was 1.1 µM and the GI50 (SNB-19) was 0.295 µM. For the same compound, the GI50 (M14 [21]) was 0.292 µM, the GI50 (MOLT-4) was 0.427 µM and the GI50 (COLO 205 [22]) was 0.214 µM. For the same compound, the GI50 (NCI-H23) was 0.407 µM, the GI50 (KM12) was 0.759 µM and the GI50 (HOP-92) was 18.6 µM.

`COc1cc(/C=N/c2ccc(C(C)C)cc2)cc(OC)c1OC` gave a GI50 (M14 [1]) greater than 100 µM, a GI50 (SF-295 [2]) greater than 100 µM and a GI50 (DMS-273 [3]; Homo sapiens, DMS-273) of 52.5 µM. For the same compound, the GI50 (OVCAR-3 [4]) was greater than 100 µM, the IC50 (Tubulin) was greater than 40 µM and the GI50 (CAKI-1 [5]) was greater than 100 µM. For the same compound, the GI50 (HL-60 [6]; Homo sapiens, HL-60) was greater than 100 µM, the GI50 (COLO 205 [7]) was greater than 100 µM and the GI50 (NCI-H522 [8]) was greater than 100 µM.

Work on `COc1cc(CNc2ccc(C)cc2)cc(OC)c1OC` [listing 2 of 2 here] yielded a GI50 (M14 [1]) of 0.15 µM, a GI50 (SF-295 [2]) of 0.163 µM and a GI50 (DMS-273 [3]; Homo sapiens, DMS-273) of 0.0926 µM. The GI50 (OVCAR-3 [4]) was 0.184 µM, the IC50 (Tubulin) was 6 µM and the GI50 (CAKI-1 [5]) was 0.192 µM. The GI50 (HL-60 [6]) was 0.122 µM and the GI50 (COLO 205 [7]) was 0.152 µM.

In the case of `COc1ccc(/C=C\c2cc(OC)c(OC)c(OC)c2)cc1`, the IC50 (Tubulin) is reported as 2 µM.
